Measurements reported in paper PMC11740379, “Novel Enyne-Modified 1,4-Thiazepines as Epidermal Growth Factor Receptor Inhibitors: Anticancer and Computational Studies” (ACS Omega, 2024).
Like-named read-outs stand apart in the source and are kept apart here.

Tests used:
Assay type in all cases: cell-based, human
HEK-293 cells = assay: XTT cytotoxicity assay, non-tumorigenic cells; settings: XTT assay, exposure time of the IC50 not stated (24, 48, 72 h tested)
Method: Human cell lines for breast cancer (MCF-7), lung cancer (A549), prostate cancer (PC-3), and nontumorigenic HEK-293 were sourced from the Health Protection Agency (U.K.) and the Interlab Cell Line Collection (Italy). The cells were cultured in RPMI medium (Sigma) supplemented with 10% heat-inactivated fetal bovine serum, 1% penicillin, and 1% L-glutamine, and incubated in a humidified CO2 atmosphere at 37 °C.
To evaluate the cytotoxic effects of TZEPs, which were dissolved in dimethyl sulfoxide (DMSO), the XTT assay (2,3-bis(2-methoxy-4-nitro-5-sulfophenyl)-2H-tetrazolium-5-carboxanilide) was employed. Cells were plated in 96-well plates at a density of 10^4 cells per well and exposed to varying concentrations of TZEPs (ranging from 1 to 250 μM) for 24, 48, and 72 h. Following the incubation, 100 μL of XTT was added to each well, and the plates were incubated for an additional 4 h at 37 °C. The resulting color change was measured by recording the absorbance at 570 nm using a microplate reader (Tecan).
The IC50 values, which indicate the concentration of the compound required to inhibit 50% of cancer cell proliferation, were determined using Biosoft CalcuSyn 2.1 software. […] Conversely, an SI less than 1 means the drug is more toxic to normal cells than to target cells, which is undesirable in therapeutic contexts. In the literature, a selectivity index of 2 or higher is generally considered significant, implying that the compound selectively targets diseased cells with relatively low toxicity to healthy cells.[15]

MCF-7 cells [1] = assay: XTT cytotoxicity assay, breast cancer cells; settings: for IC50: read-out: IC50, breast cancer (MCF-7); for Selectivity index (SI), breast cancer (MCF-7): versus normal cells HEK-293
Method: (§1) The cells were cultured in RPMI medium (Sigma) supplemented with 10% heat-inactivated fetal bovine serum, 1% penicillin, and 1% L-glutamine, and incubated in a humidified CO2 atmosphere at 37 °C.
(§2) To evaluate the cytotoxic effects of TZEPs, which were dissolved in dimethyl sulfoxide (DMSO), the XTT assay (2,3-bis(2-methoxy-4-nitro-5-sulfophenyl)-2H-tetrazolium-5-carboxanilide) was employed. […] Following the incubation, 100 μL of XTT was added to each well, and the plates were incubated for an additional 4 h at 37 °C. The resulting color change was measured by recording the absorbance at 570 nm using a microplate reader (Tecan).
(§3) Conversely, an SI less than 1 means the drug is more toxic to normal cells than to target cells, which is undesirable in therapeutic contexts.

A549 cells [2] = assay: XTT cytotoxicity assay, lung cancer cells; settings: for IC50: read-out: IC50, lung cancer (A549); for Selectivity index (SI), lung cancer (A549): versus normal cells HEK-293
Method: as §1, §2, §3

PC-3 cells [3] = assay: XTT cytotoxicity assay, prostate cancer cells; settings: for IC50: read-out: IC50, prostate cancer (PC-3); for Selectivity index (SI), prostate cancer (PC-3): versus normal cells HEK-293
Method: as §1, §2, §3

A549 cells [4] = assay: Annexin V-FITC/PI apoptosis detection by flow cytometry; settings: A549, IC50 concentration, 72 h
Text: (§4) Annexin V, a protein with a high affinity for phosphatidylserine (PS), is pivotal in detecting apoptosis. Normally, PS is located in the inner leaflet of the plasma membrane, but during apoptosis, it moves to the outer leaflet, making it a key marker for apoptotic cells.[16] Annexin V binds specifically to PS on the surface of these cells. A secondary dye like propidium iodide (PI) is used to distinguish apoptotic cells from viable ones with intact membranes. We can identify and quantify viable cells (annexin V–, PI–) and apoptotic cells (annexin V+, PI+) by analyzing fluorescence patterns. Here, we employed the FITC Annexin V Apoptosis Detection Kit I from BD Pharmingen. Cells were seeded at a density of 10^6 cells per well in a 6-well plate and exposed to IC50 concentration of TZEP7 for 72 h. Following treatment, cells were rinsed with cold PBS, resuspended in 1 mL of 1× Binding Buffer, and stained with 5 μL of Annexin V FITC and 5 μL of PI. After vortexing, the samples were incubated at room temperature (25 °C) for 15 min in the dark. Postincubation, 400 μL of 1× Binding Buffer was added to each sample, and apoptosis was measured using a BD Accuri C6 Flow Cytometer. Cisplatin was used as an apoptosis-inducing reference drug.

MCF-7 cells [5] = assay: as above; settings: MCF-7, IC50 concentration, 72 h
Text: as §4

PC-3 cells [6] = assay: as above; settings: PC-3, IC50 concentration, 72 h
Text: as §4

[7] = Homo sapiens, MCF7, XTT assay, exposure time of the IC50 not stated (24, 48, 72 h tested)
[8] = Homo sapiens, A549, XTT assay, exposure time of the IC50 not stated (24, 48, 72 h tested)
[9] = Homo sapiens, PC-3, XTT assay, exposure time of the IC50 not stated (24, 48, 72 h tested)
[10] = XTT assay, exposure time of the IC50 not stated (24, 48, 72 h tested)

Compound | IC50 (HEK-293 cells; Homo sapiens, HEK293) | IC50 (MCF-7 cells [1]; [7]) | Selectivity index (SI), breast cancer (MCF-7) (MCF-7 cells [1]) | IC50 (A549 cells [2]; [8]) | Selectivity index (SI), lung cancer (A549) (A549 cells [2]) | IC50 (PC-3 cells [3]; [9]) | Selectivity index (SI), prostate cancer (PC-3) (PC-3 cells [3]) | IC50 (HEK-293 cells) | IC50 (MCF-7 cells [1]; [10]) | IC50 (A549 cells [2]; [10]) | IC50 (PC-3 cells [3]; [10]) | cells in early apoptosis (A549 cells [4]) | cells in late apoptosis (A549 cells [4]) | cells in early apoptosis (MCF-7 cells [5]) | cells in late apoptosis (MCF-7 cells [5]) | cells in early apoptosis (PC-3 cells [6]) | cells in late apoptosis (PC-3 cells [6]) | IC50 (MCF-7 cells [1]; Homo sapiens, MCF7, 72 h) | IC50 (A549 cells [2]; Homo sapiens, A549, 72 h) | IC50 (PC-3 cells [3]; Homo sapiens, PC-3, 72 h)
C(#Cc1ccccc1)/C=C1/CN=C(c2ccccc2)C=C(c2ccccc2)S1 [TZEP1] | 29.5 ± 0.8 µM | 69.4 ± 1.2 µM | 0.42 | 38.7 ± 3.2 µM | 0.76 | 12.4 ± 3.2 µM | 2.37 | – | – | – | – | – | – | – | – | – | – | – | – | –
Fc1cccc(C2=NC/C(=C/C#Cc3ccccc3)SC(c3ccccc3)=C2)c1 [TZEP2] | 45.7 ± 2.7 µM | 66.4 ± 1.8 µM | 0.68 | 61.4 ± 1.6 µM | 0.74 | 57.7 ± 1.4 µM | 0.79 | – | – | – | – | – | – | – | – | – | – | – | – | –
Brc1ccc(C2=NC/C(=C/C#Cc3ccccc3)SC(c3ccccc3)=C2)cc1 [TZEP3] | 35.5 ± 1.3 µM | 13.3 ± 1 µM | 2.66 | 60.3 ± 0.8 µM | 0.58 | 71.2 ± 0.9 µM | 0.49 | – | – | – | – | – | – | – | – | – | – | – | – | –
Clc1ccc(C2=CC(c3ccccc3)=NC/C(=C/C#Cc3ccccc3)S2)cc1 [TZEP4] | 47.3 ± 0.7 µM | 81.2 ± 4.4 µM | 0.58 | 71.1 ± 2.6 µM | 0.66 | 73.5 ± 2.2 µM | 0.64 | – | – | – | – | – | – | – | – | – | – | – | – | –
Brc1ccccc1C1=CC(c2ccccc2)=NC/C(=C/C#Cc2ccccc2)S1 [TZEP5] | 20.4 ± 1.4 µM | 22.3 ± 1.8 µM | 0.91 | 45.8 ± 0.9 µM | 0.44 | 54.9 ± 3.2 µM | 0.37 | – | – | – | – | – | – | – | – | – | – | – | – | –
Clc1ccc(C2=NC/C(=C/C#Cc3ccccc3)SC(c3ccccc3Br)=C2)cc1 [TZEP6] | 10.9 ± 3.4 µM | 15.5 ± 2.8 µM | 0.70 | 14.2 ± 2.2 µM | 0.76 | 12.4 ± 3.6 µM | 0.87 | – | – | – | – | – | – | – | – | – | – | – | – | –
C(#Cc1ccccc1)/C=C1/CN=C(c2ccsc2)C=C(c2ccccc2)S1 [TZEP8] | 99.2 ± 3 µM | 85.7 ± 2.4 µM | 1.15 | 112.8 ± 0.8 µM | 0.87 | 95.4 ± 1.2 µM | 1.03 | – | – | – | – | – | – | – | – | – | – | – | – | –
Cc1ccc(C2=NC/C(=C/C#Cc3ccccc3)SC(c3ccccc3)=C2)cc1 [TZEP9] | 98.8 ± 0.7 µM | 78.4 ± 1.8 µM | 1.26 | 96.6 ± 1.4 µM | 1.02 | 103 ± 2 µM | 0.96 | – | – | – | – | – | – | – | – | – | – | – | – | –
CC(C)(C)c1ccc(C2=NC/C(=C/C#Cc3ccccc3)SC(c3ccccc3)=C2)cc1 [TZEP10] | 89 ± 0.5 µM | 76.3 ± 0.8 µM | 1.16 | 64.4 ± 1.8 µM | 1.38 | 73.7 ± 3.2 µM | 1.20 | – | – | – | – | – | – | – | – | – | – | – | – | –
COc1ccc(C2=NC/C(=C/C#Cc3ccccc3)SC(c3ccccc3)=C2)cc1 [TZEP11] | 112 ± 3 µM | 98.2 ± 2.8 µM | 1.14 | 108 ± 2.6 µM | 1.04 | 81.6 ± 3.4 µM | 1.37 | – | – | – | – | – | – | – | – | – | – | – | – | –
Cc1ccc(C#C/C=C2/CN=C(c3ccccc3)C=C(c3ccccc3)S2)cc1 [TZEP12] | 110 ± 1.2 µM | 92.6 ± 1 µM | 1.19 | 90.5 ± 0.7 µM | 1.21 | 101 ± 3 µM | 1.09 | – | – | – | – | – | – | – | – | – | – | – | – | –
N.N.[Cl][Pt][Cl] [cisplatin, Cisplatin, reference compound] | – | – | 1.02 | – | 1.11 | – | 1.17 | 15 ± 0.7 µM | 14.7 ± 0.6 µM | 13.4 ± 1.4 µM | 12.8 ± 2.8 µM | 13.4% | 70.8% | 18.7% | 72.2% | 16.2% | 75.4% | – | – | –
C#Cc1cccc(Nc2ncnc3cc(OCCOC)c(OCCOC)cc23)c1 [erlotinib, Erlotinib, reference compound] | 12.9 ± 3 µM | – | – | – | – | – | – | – | – | – | – | – | – | – | – | – | – | 13.4 ± 2 µM | 18.4 ± 0.4 µM | 15.5 ± 30.8 µM
